Drawing on US20250276952A1, “4-AMINOPHENYL-THIAZOLE DERIVATIVES AND METHODS OF USE THEREOF” (CYTEIR THERAPEUTICS, INC., priority 2022, published 2025), this text covers IC50 and EC50 for 7 compounds.

Like-named read-outs stand apart in the source and are kept apart here. Some results are limits rather than exact numbers.

One assay concerns the target T1, human MCT1 (Homo sapiens, UniProt P53985).
T1 construct: expressed in transfected cells; host or cells: MDCK-II cells, transiently co-transfected for 48 h
T1 sequence (P53985 1-500): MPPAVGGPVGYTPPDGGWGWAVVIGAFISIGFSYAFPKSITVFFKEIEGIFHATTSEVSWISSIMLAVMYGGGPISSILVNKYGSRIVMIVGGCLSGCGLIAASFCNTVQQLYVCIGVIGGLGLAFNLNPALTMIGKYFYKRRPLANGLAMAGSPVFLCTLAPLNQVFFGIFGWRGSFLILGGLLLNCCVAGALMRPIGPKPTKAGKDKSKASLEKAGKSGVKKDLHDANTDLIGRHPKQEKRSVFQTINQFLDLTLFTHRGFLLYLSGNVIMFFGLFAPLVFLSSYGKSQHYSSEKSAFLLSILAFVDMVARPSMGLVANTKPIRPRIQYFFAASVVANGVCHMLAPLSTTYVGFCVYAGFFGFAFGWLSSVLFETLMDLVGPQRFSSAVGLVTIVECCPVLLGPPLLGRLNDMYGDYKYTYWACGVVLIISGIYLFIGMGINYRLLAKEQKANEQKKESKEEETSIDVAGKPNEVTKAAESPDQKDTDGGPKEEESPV
T1 sequence (P35613 140-385 partner limits assumed): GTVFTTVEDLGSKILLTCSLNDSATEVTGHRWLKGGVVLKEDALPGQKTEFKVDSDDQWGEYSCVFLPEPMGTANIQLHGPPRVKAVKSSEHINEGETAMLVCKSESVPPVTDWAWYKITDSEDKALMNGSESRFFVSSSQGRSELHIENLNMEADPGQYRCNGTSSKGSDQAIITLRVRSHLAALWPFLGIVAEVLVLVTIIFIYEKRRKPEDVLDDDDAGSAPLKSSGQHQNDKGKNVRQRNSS
As to the kind of experiment: MCT1 transport inhibition assay (TPGA uptake, LC-MS/MS). Format: cell-based. As to conditions: MDCK-II cells overexpressing human MCT1, TPGA transport, read-out: BioIVT MCT1 Transporter IC50. The procedure: Inhibition of MCT1 transport after treatment with compounds of the present invention was measured in MDCK-II cells that overexpress human MCT1 by quantifying the transport of 2-Thiophene-glycoxylic acid (TPGA) into cells using LC-MS/MS.
MDCK-II cells are seeded at 60,000 cells per well in growth medium (low-glucose DMEM+10% FBS) in 96-well trans-well membrane plates, and incubated overnight (37° C., 5% CO2). Cells were co-transfected with mammalian expression constructs coding for MCT1 and CD147 at a 2:1 ratio or an empty vector control (GFP) and then incubated for 48 h (37° C., 5% CO2). Cells were washed 3 times with HBSS and cells were preincubated with inhibitors or vehicle control at room temperature in HBSS for 30 min with orbital shaking (60 rpm). HBSS was aspirated from the wells and replaced with HBSS with 25 mM Bis-Tris pH5.5+inhibitor or vehicle control+500 μM TPGA and incubated for 1 min at room temperature with orbital shaking (60 rpm). Both the apical and basolateral side of the trans-well insert were washed 4 times with ice-cold PBS. Cells were lysed with 60 μL of cell extraction solution, and the amount of TPGA in each well was quantified in triplicate by LC-MS/MS. The MCT1-mediated uptake rate was calculated using the following equation: […]
Percent inhibition for each concentration of inhibitor tested was calculated using the following equation: […]
Curves were fit to the calculated percent inhibition for each inhibitor, and the IC50 representing the concentration of inhibitor at which MCT1 is inhibited by 50% was calculated from this curve.

Assay [1] deals with Daudi (Burkitt Lymphoma) cells. As to the kind of experiment: Intracellular lactate accumulation assay (Lactate-Glo, 2 h treatment). Format: cell-based. Particulars: Homo sapiens, read-out: LactateGlo EC50. Here is the method: Intracellular lactate accumulation after a 2 h treatment with compounds of the present invention was measured in Daudi (Burkitt Lymphoma) cells using the Lactate-Glo Assay (Promega).
Daudi cells were seeded at 7,500 cells per well in 150 μL of growth medium (RPMI-1640 with 2 mM GlutaMAX+10% FBS) in clear, 96-well, flat-bottom microplates, and incubated overnight (37° C., 5% CO2). Compounds of the present invention were added using an INTEGRA VIAFLO 96 (8 point, 3-fold serial dilution, top concentration 1, 10, or 20 μM, 0.4% final DMSO concentration). After a 2 h incubation (37° C., 5% CO2) microplates containing cells were washed twice with 150 μL ice-cold PBS, resuspended in 25 μL ice-cold PBS containing 12.5 μL 0.6N HCl, and placed on a microplate shaker for 5 min to lyse the cells. Following lysis, 12.5 μL 1M Trizma base was added to neutralize the suspension, and microplates were returned to the microplate shaker for 1 min. Plates were sealed and stored at −20° C. until further processing. On the day of the assay, microplates were thawed for 45 min at room temperate and […] Lactate Detection Reagent (prepared as specified by manufacturer) was added to each well. Microplates were placed on a plate shaker for 1 min and incubated at room temperature for 1 h. Luminescence was measured using a BioTek Cytation 5 Multi-Mode Reader. Curve fitting and calculation of EC50 was performed using GraphPad Prism.

With `Cc1[nH]nc(C(F)(F)F)c1Cc1sc2c(c1C(=O)N1C[C@](C)(O)CO1)c(=O)n(C)c(=O)n2C(C)C` [AZD3965], on human MCT1 (numeric values), the half-inhibitory concentration (IC50) was 190 nM.

As to `O=C(Nc1ccccc1C(=O)O)c1cc(S(=O)(=O)c2ccccc2)ccc1Cl` [BAY8002], the half-maximal inhibitory concentration (IC50) at human MCT1 (numeric values) came out at 73 nM.

Turning to `COc1cc(NC(=O)OC(C)C)ccc1-c1cnc([C@H]2CC[C@H](NC(=O)OC(C)C)CC2)s1` [Example 14, isopropyl ((trans)-4-(5-(4-((isopropoxycarbonyl)amino)-2-methoxyphenyl)thiazol-2-yl)cyclohexyl)carbamate], the EC50 in assay [1] was in the range of 150 to 1000 nM.

Take `CC(C)OC(=O)N[C@H]1CC[C@H](c2ncc(-c3ccc(NC(=O)NCc4ccccc4)cc3N)s2)CC1` [Example 19, isopropyl ((trans)-4-(5-(2-amino-4-(3-benzylureido)phenyl)thiazol-2-yl)cyclohexyl)carbamate]: the half-maximal effective concentration (EC50) in assay [1] is less than 50 nM.

For the compound `CC(C)OC(=O)N[C@H]1CC[C@H](c2ncc(-c3ccc(NC(=O)NCc4ccccc4)cc3O)s2)CC1` [Example 20, isopropyl ((trans)-4-(5-(4-(3-benzylureido)-2-hydroxyphenyl)thiazol-2-yl)cyclohexyl)carbamate], the 50% effective concentration (EC50) in assay [1] was less than 50 nM.

With `CC(C)OC(=O)Nc1ccc(-c2cnc([C@H]3CC[C@H](NC(=O)OC(C)C)CC3)s2)c(F)c1` [Example 23, isopropyl ((trans)-4-(5-(2-fluoro-4-((isopropoxycarbonyl)amino)phenyl)thiazol-2-yl)cyclohexyl)carbamate], in assay [1], the EC50 is greater than 5000 nM.

Take `COCCn1c(-c2ccc(NC(=O)OC(C)C)cc2F)cnc1[C@H]1CC[C@H](NC(=O)OC(C)C)CC1` [Example 32, isopropyl ((trans)-4-(5-(2-fluoro-4-((isopropoxycarbonyl)amino)phenyl)-1-(2-methoxyethyl)-1H-imidazol-2-yl)cyclohexyl)carbamate]: the IC50 on human MCT1 (class symbols) is greater than 5000 nM.

One may read the IC50 as the concentration that inhibits the measured activity by half. What is called EC50 is the concentration that produces a half-maximal response.
